Test results from patent publication US6737383B1, “Herbicidal oxadiazolidines” (priority 1999, dated 2004).

How the values were obtained:
soybean = experiment: Test B pre/postemergence soybean; format: in vivo, Glycine max; settings: for Soybean plant response rating: scale of 0 to 10 where 0 is no effect and 10 is complete control
Summary of the method: (§1)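 Herbicidal effect was estimated by eye on a ten-point control scale after plants spent twelve to sixteen days in a greenhouse following soil or foliar treatment. Foliar sprays targeted plants at one to four leaves; all doses were formulated in a non-phytotoxic solvent with surfactant.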

corn = experiment: Test B pre/postemergence corn; format: in vivo, Zea mays; settings: for Corn plant response rating: scale of 0 to 10 where 0 is no effect and 10 is complete control
Summary of the method: as §1

wheat = experiment: Test B pre/postemergence wheat; format: in vivo, Triticum aestivum; settings: for Wheat plant response rating: scale of 0 to 10 where 0 is no effect and 10 is complete control
Summary of the method: as §1

pigweed = experiment: Test B pre/postemergence pigweed; format: in vivo, Amaranthus retroflexus; settings: for Redroot pigweed plant response rating: scale of 0 to 10 where 0 is no effect and 10 is complete control
Summary of the method: as §1

blackgrass = experiment: Test B pre/postemergence blackgrass; format: in vivo, Alopecurus myosuroides; settings: for Blackgrass plant response rating: scale of 0 to 10 where 0 is no effect and 10 is complete control
Summary of the method: as §1

purple nutsedge = experiment: Test B pre/postemergence purple nutsedge; format: in vivo, Cyperus rotundus; settings: for Nutsedge plant response rating: scale of 0 to 10 where 0 is no effect and 10 is complete control
Summary of the method: as §1

crabgrass = experiment: Test B pre/postemergence crabgrass; format: in vivo, Digitaria sanguinalis; settings: for Crabgrass plant response rating: scale of 0 to 10 where 0 is no effect and 10 is complete control
Summary of the method: as §1

bedstraw = experiment: Test B pre/postemergence bedstraw; format: in vivo, Galium aparine; settings: for Bedstraw plant response rating: scale of 0 to 10 where 0 is no effect and 10 is complete control
Summary of the method: as §1

cocklebur = experiment: Test B pre/postemergence cocklebur; format: in vivo, Xanthium strumarium; settings: for Cocklebur plant response rating: scale of 0 to 10 where 0 is no effect and 10 is complete control
Summary of the method: as §1

morningglory = experiment: Test B pre/postemergence morningglory; format: in vivo, Ipomoea hederacea; settings: for Morningglory plant response rating: scale of 0 to 10 where 0 is no effect and 10 is complete control
Summary of the method: as §1

surinam grass = experiment: Test B pre/postemergence surinam grass; format: in vivo, Brachiaria decumbens; settings: for B. signalgrass plant response rating: scale of 0 to 10 where 0 is no effect and 10 is complete control
Summary of the method: as §1

giant foxtail = experiment: Test B pre/postemergence giant foxtail; format: in vivo, Setaria faberii; settings: for Giant foxtail plant response rating: scale of 0 to 10 where 0 is no effect and 10 is complete control
Summary of the method: as §1

velvetleaf = experiment: Test B pre/postemergence velvetleaf; format: in vivo, Abutilon theophrasti; settings: for Velvetleaf plant response rating: scale of 0 to 10 where 0 is no effect and 10 is complete control
Summary of the method: as §1

rape = experiment: Test B pre/postemergence rape; format: in vivo, Brassica napus; settings: for Rape plant response rating: scale of 0 to 10 where 0 is no effect and 10 is complete control
Summary of the method: as §1

sugar beet = experiment: Test B pre/postemergence sugar beet; format: in vivo, Beta vulgaris; settings: for Sugarbeets plant response rating: scale of 0 to 10 where 0 is no effect and 10 is complete control
Summary of the method: as §1

wild oat = experiment: Test B pre/postemergence wild oat; format: in vivo, Avena fatua; settings: for Wild oats plant response rating: scale of 0 to 10 where 0 is no effect and 10 is complete control
Summary of the method: as §1

[1] = Postemergence, Rate 125 g/ha, scale 0 to 10, 0 is no effect, 10 is complete control
[2] = Postemergence, Rate 250 g/ha, scale 0 to 10, 0 is no effect, 10 is complete control
[3] = Preemergence, Rate 62 g/ha, scale 0 to 10 (0 no effect, 10 complete control)
[4] = Rate 500 g/ha, Postemergence, scale 0 to 10, 0 no effect, 10 complete control

CC(C)N(C(=O)n1oc(=O)n(C2(C)CC2)c1=O)c1ccc(F)cc1F [Compound 363]
0: Plant response rating, Soybean (soybean; [3]) | Soybean plant response rating (0 to 10 scale) (soybean; Preemergence, Rate 125 g/ha) | Soybean plant response rating (soybean; Preemergence, Rate 250 g/ha) | Soybean plant response rating (soybean; Preemergence, Rate 500 g/ha) | Plant response rating, Corn (corn; [1]) | Plant response rating, Corn (corn; [3]) | Corn plant response rating (0 to 10 scale) (corn; Preemergence, Rate 125 g/ha) | Corn plant response rating (corn; Rate 62 g/ha, Postemergence) | Wheat plant response rating (wheat; Rate 62 g/ha, Postemergence) | Plant response rating, Redroot pigweed (pigweed; [1]) | Redroot pigweed plant response rating (pigweed; Rate 62 g/ha, Postemergence) | Plant response rating, Nutsedge (purple nutsedge; [1]) | Plant response rating, Nutsedge (purple nutsedge; [2]) | Plant response rating, Nutsedge (purple nutsedge; [3]) | Nutsedge plant response rating (0 to 10 scale) (purple nutsedge; Preemergence, Rate 125 g/ha) | Nutsedge plant response rating (purple nutsedge; Preemergence, Rate 250 g/ha) | Nutsedge plant response rating (purple nutsedge; Rate 62 g/ha, Postemergence) | Plant response rating, Nutsedge (purple nutsedge; [4]) | Plant response rating, Cocklebur (cocklebur; [1]) | Plant response rating, Cocklebur (cocklebur; [3]) | Cocklebur plant response rating (0 to 10 scale) (cocklebur; Preemergence, Rate 125 g/ha) | Cocklebur plant response rating (cocklebur; Preemergence, Rate 250 g/ha) | Cocklebur plant response rating (cocklebur; Preemergence, Rate 500 g/ha) | Cocklebur plant response rating (cocklebur; Rate 62 g/ha, Postemergence) | Plant response rating, Morningglory (morningglory; [3]) | Morningglory plant response rating (0 to 10 scale) (morningglory; Preemergence, Rate 125 g/ha) | Plant response rating, B. signalgrass (surinam grass; [1]) | B. signalgrass plant response rating (surinam grass; Rate 62 g/ha, Postemergence) | Plant response rating, Velvetleaf (velvetleaf; [1]) | Velvetleaf plant response rating (velvetleaf; Rate 62 g/ha, Postemergence) | Plant response rating, Rape (rape; [1]) | Plant response rating, Rape (rape; [2]) | Plant response rating, Rape (rape; [3]) | Rape plant response rating (rape; Rate 62 g/ha, Postemergence) | Plant response rating, Sugarbeets (sugar beet; [3]) | Sugarbeets plant response rating (sugar beet; Rate 62 g/ha, Postemergence) | Plant response rating, Wild oats (wild oat; [1]) | Wild oats plant response rating (wild oat; Rate 62 g/ha, Postemergence)
3: Corn plant response rating (corn; Preemergence, Rate 250 g/ha) | Plant response rating, Wheat (wheat; [3]) | Redroot pigweed plant response rating (0 to 10 scale) (pigweed; Preemergence, Rate 125 g/ha) | Plant response rating, Crabgrass (crabgrass; [3]) | Plant response rating, Morningglory (morningglory; [4]) | Plant response rating, B. signalgrass (surinam grass; [3]) | B. signalgrass plant response rating (0 to 10 scale, 0 is no effect, 10 is complete control) (surinam grass; Preemergence, Rate 125 g/ha) | Plant response rating, Velvetleaf (velvetleaf; [2]) | Rape plant response rating (rape; Preemergence, Rate 250 g/ha) | Plant response rating, Sugarbeets (sugar beet; [2]) | Plant response rating, Sugarbeets (sugar beet; [4])
9: Crabgrass plant response rating (crabgrass; Preemergence, Rate 500 g/ha) | Plant response rating, Crabgrass (crabgrass; [4]) | Plant response rating, Bedstraw (bedstraw; [3]) | Bedstraw plant response rating (0 to 10 scale) (bedstraw; Preemergence, Rate 125 g/ha) | Plant response rating, Bedstraw (bedstraw; [4]) | Plant response rating, Giant foxtail (giant foxtail; [2]) | Plant response rating, Giant foxtail (giant foxtail; [4]) | Wild oats plant response rating (0 to 10 scale) (wild oat; Preemergence, Rate 125 g/ha)
6: Plant response rating, Soybean (soybean; [2]) | Plant response rating, Corn (corn; [4]) | Wheat plant response rating (wheat; Preemergence, Rate 250 g/ha) | Plant response rating, Wheat (wheat; [4]) | Morningglory plant response rating (morningglory; Preemergence, Rate 500 g/ha) | B. signalgrass plant response rating (surinam grass; Preemergence, Rate 500 g/ha) | Velvetleaf plant response rating (velvetleaf; Preemergence, Rate 250 g/ha) | Plant response rating, Velvetleaf (velvetleaf; [4])
7: Plant response rating, Soybean (soybean; [4]) | Corn plant response rating (corn; Preemergence, Rate 500 g/ha) | Wheat plant response rating (wheat; Preemergence, Rate 500 g/ha) | Redroot pigweed plant response rating (pigweed; Preemergence, Rate 250 g/ha) | Plant response rating, Blackgrass (blackgrass; [1]) | Plant response rating, Blackgrass (blackgrass; [2]) | Crabgrass plant response rating (0 to 10 scale) (crabgrass; Preemergence, Rate 125 g/ha) | Crabgrass plant response rating (crabgrass; Preemergence, Rate 250 g/ha) | Plant response rating, Bedstraw (bedstraw; [2]) | Velvetleaf plant response rating (velvetleaf; Preemergence, Rate 500 g/ha) | Sugarbeets plant response rating (sugar beet; Preemergence, Rate 250 g/ha) | Plant response rating, Wild oats (wild oat; [4])
4: Soybean plant response rating (soybean; Rate 62 g/ha, Postemergence) | Plant response rating, Wheat (wheat; [1]) | Plant response rating, Bedstraw (bedstraw; [1]) | Bedstraw plant response rating (bedstraw; Rate 62 g/ha, Postemergence) | Plant response rating, Giant foxtail (giant foxtail; [1]) | Giant foxtail plant response rating (giant foxtail; Rate 62 g/ha, Postemergence) | Sugarbeets plant response rating (0 to 10 scale) (sugar beet; Preemergence, Rate 125 g/ha)
10: Redroot pigweed plant response rating (pigweed; Preemergence, Rate 500 g/ha) | Blackgrass plant response rating (0 to 10 scale) (blackgrass; Preemergence, Rate 125 g/ha) | Blackgrass plant response rating (blackgrass; Preemergence, Rate 250 g/ha) | Blackgrass plant response rating (blackgrass; Preemergence, Rate 500 g/ha) | Bedstraw plant response rating (bedstraw; Preemergence, Rate 250 g/ha) | Bedstraw plant response rating (bedstraw; Preemergence, Rate 500 g/ha) | Giant foxtail plant response rating (0 to 10 scale) (giant foxtail; Preemergence, Rate 125 g/ha) | Giant foxtail plant response rating (giant foxtail; Preemergence, Rate 250 g/ha) | Giant foxtail plant response rating (giant foxtail; Preemergence, Rate 500 g/ha) | Wild oats plant response rating (wild oat; Preemergence, Rate 250 g/ha) | Wild oats plant response rating (wild oat; Preemergence, Rate 500 g/ha)
5: Plant response rating, Soybean (soybean; [1]) | Plant response rating, Wheat (wheat; [2]) | Wheat plant response rating (0 to 10 scale) (wheat; Preemergence, Rate 125 g/ha) | Plant response rating, Redroot pigweed (pigweed; [4]) | Blackgrass plant response rating (blackgrass; Rate 62 g/ha, Postemergence) | Plant response rating, Crabgrass (crabgrass; [2]) | Morningglory plant response rating (morningglory; Preemergence, Rate 250 g/ha) | B. signalgrass plant response rating (surinam grass; Preemergence, Rate 250 g/ha) | Plant response rating, B. signalgrass (surinam grass; [4]) | Velvetleaf plant response rating (0 to 10 scale) (velvetleaf; Preemergence, Rate 125 g/ha) | Rape plant response rating (rape; Preemergence, Rate 500 g/ha) | Plant response rating, Wild oats (wild oat; [3])
2: Plant response rating, Corn (corn; [2]) | Plant response rating, Redroot pigweed (pigweed; [2]) | Plant response rating, Redroot pigweed (pigweed; [3]) | Nutsedge plant response rating (purple nutsedge; Preemergence, Rate 500 g/ha) | Plant response rating, Crabgrass (crabgrass; [1]) | Plant response rating, Cocklebur (cocklebur; [2]) | Plant response rating, Cocklebur (cocklebur; [4]) | Plant response rating, Rape (rape; [4])
8: Plant response rating, Blackgrass (blackgrass; [3]) | Plant response rating, Blackgrass (blackgrass; [4]) | Sugarbeets plant response rating (sugar beet; Preemergence, Rate 500 g/ha)
1: Crabgrass plant response rating (crabgrass; Rate 62 g/ha, Postemergence) | Plant response rating, Morningglory (morningglory; [1]) | Plant response rating, Morningglory (morningglory; [2]) | Morningglory plant response rating (morningglory; Rate 62 g/ha, Postemergence) | Plant response rating, B. signalgrass (surinam grass; [2]) | Plant response rating, Velvetleaf (velvetleaf; [3]) | Rape plant response rating (0 to 10 scale) (rape; Preemergence, Rate 125 g/ha) | Plant response rating, Sugarbeets (sugar beet; [1]) | Plant response rating, Wild oats (wild oat; [2])
